Assay type in all cases: cell-based, mouse
In one test the test system is Atoh1-nGFP cells. Put plainly: Hair cell differentiation of LCP organoids, FACS for Atoh1-nGFP cells. Particulars: 10 days of differentiation (D10), standard differentiation treatment (CHIR99021 and LY411575) without or with pargyline. The procedure: (§1) Differentiation of LCPs into a hair cell lineage. […] To analyze the effect of the Lsd1 inhibitors, the LCPs were treated with the small molecules combined with a differentiation drug cocktail, pargyline and CHIR99021 or CHIR99021 at 1, 2, 4, and 10 days (McLean et al., 2017).
For the drug screening experiments, the expanded cells were passaged into a 96 well plate to test varying drug combinations. All experiments were done in triplicate at minimum. Atoh1-nGFP cells were quantified after 10 days in culture. The cell colonies were incubated in Cell Recovery Solution for 1 hour and dissociated into single cells using TrypleE. The total cell number and percentage of GFP+ cells were quantified using fluorescence activated cell sorting (FACS).
We next tested the effect of Lsd1 inhibition on hair cell differentiation. In this assay, after the cells were expanded into organoids during the initial proliferation phase, differentiation was initiated using the combination of CHIR99021 and LY411575 and allowed to progress for 10 days (DO to D10). Organoids were monitored for the development of hair cells using FACS and qRT-PCR. […] Conversely, Myo7a expression increases throughout development and is a key marker of mature hair cells. All hair cell markers tested were elevated with the exception of Atoh1, which had begun to decrease 10 days after the initiation of differentiation.

A further test has as its system Atoh1. Put plainly: qRT-PCR of Atoh1 in differentiated LCP organoids. Particulars: D10, pargyline-treated cells relative to standard treatment. The procedure:
as §1
RNA extraction and PCR. For the LCPs, the organoids were treated with Cell Recovery Solution for at 1 hour and TrypleE for 20 minutes, then frozen in RLT buffer. RNA extractions were performed using the RNeasy Micro Kit (QIAGEN) and cDNA generated using ImProm-II Reverse Transcription Kit (Promega). TaqMan Real-Time PCR was performed in triplicates using the TaqMan Gene Expression Master Mix (ThermoFisher Scientific) on a StepOne Real-Time PCR machine (ThermoFisher Scientific). Ordinary One-way Anova was used to assess statistical significance. A minimum of three biologically distinct samples were analyzed for each condition.
We next tested the effect of Lsd1 inhibition on hair cell differentiation. In this assay, after the cells were expanded into organoids during the initial proliferation phase, differentiation was initiated using the combination of CHIR99021 and LY411575 and allowed to progress for 10 days (DO to D10). Organoids were monitored for the development of hair cells using FACS and qRT-PCR. […] Conversely, Myo7a expression increases throughout development and is a key marker of mature hair cells. […]
On the technique in general: Real-time PCR tracks product formation cycle by cycle.

Another test deals with LCPs. Put plainly: RNA sequencing of LCP organoids with and without pargyline. Here is the method:
RNA sequencing. After RNA extractions were performed using the RNeasy Micro Kit (QIAGEN), the library preparation and RNA-sequencing was performed at the Dana Farber Cancer Institute Molecular Biology Core Facility. In brief, cDNA was synthesized from 2.5 ng of RNA using SMARTer V4 Kit (Clontech). Following fragmentation using M220 Focused-Ultrasonicator (Covaris), 2 ng of sheared cDNA was taken for library preparation using ThruPLEX DNA-seq kit (Rubicon Genomics). NextSeq500 Single-End 75 bp (SE75) Sequencing (Illumina) was performed on all 12 samples in one lane after they were indexed and pooled in equimolar to ensure 20-30 million reads per sample. Reads were aligned to mm10 augmented with Ensembl gene build 75 with STAR v2.5.2b (Dobin et al., 2013). Reads and alignments were assessed for quality using FastQC. Differential expression was evaluated using DESeq2. Genes were called differentially expressed when the absolute value of the fold change was >1.25 and FDR, was smaller than 0.05. Subsequent pathway analysis was performed using Ingenuity Pathway Analysis software (Qiagen).
The effect of pargyline on the differentiation of hair cells could be broad and we therefore evaluated its effect on the gene expression patterns of Lsd1 inhibitor-treated and untreated samples. The samples analyzed included the undifferentiated organoids following expansion (DO) and the differentiated organoids following 10 days of differentiation, with and without pargyline treatment (D10). […] In addition, 90% of the genes aligned to the genome and over 22,000 genes were detected in each sample. […] The times here refer to the beginning and end of differentiation and the finding was that most of the difference between samples was due to the 10 days of differentiation. Consistently, the principle component analysis (PCA) clustered the samples by the time of differentiation (responsible for 62% of the variation between samples) and the treatment (20% of the variation: FIG. 10B). Lsd1 inhibition in the presence of CHIR99021 altered gene expression and caused the pargyline-treated samples to cluster separately from those treated with CHIR99021 alone.
Differential expression analysis of the samples was also performed using DESeq2 (Love et al., 2014). […] We further compared the gene expression profiles of the samples. Compared to the undifferentiated (DO), approximately […]) and 3365 genes were differentially expressed in the D10 or D10+pargyline samples, respectively. The addition of pargyline compared to the untreated samples altered the expression of approximately 474 genes (padj<0.05, fold change >1.25).
Gene set enrichment analysis (GSEA) using gene sets associated with biological process gene ontology terms (Subramanian et al., 2005) was next performed to gain insight into the relevant pathways altered in this dataset. The analysis accounts for coordinated differential expression over pre-defined gene sets, instead of changes in individual genes. Pathways related to the cell cycle and proliferation were the most enriched after pargyline treatment, particularly the p53 and PI3/AKT, MAPK and RAS pathways (−0.503, −0.33). although these cells were in the differentiation phase. […] Here we present the top 15 differentially expressed hair cell receptor genes. […] Collectively, these findings corroborate increasing hair cell differentiation with Lsd1 inhibition.

A further test deals with LCP organoids. Put plainly: Immunostaining of differentiated organoids for Atoh1 and Myo7a. The source says: Immunochemistry. […] Nuclei were visualized using DAPI (Vector Laboratories).
[1] abbreviates: D10 with pargyline compared to untreated.
[2] abbreviates: pargyline-treated samples, p<0.05.

The structures appear in SMILES notation.

`C#CCN(C)Cc1ccccc1` [pargyline, N-Methyl-N-propargylbenzylamine]: in the test with Atoh1-nGFP cells, the “percentage of Atoh1-nGFP cells in culture” value turned out to be 39%. The “mRNA levels of Atoh1” value in the test on Atoh1 is listed as “no difference”. Further, the “genes differentially expressed compared to the undifferentiated (D0)” value in the test with LCPs (D10+pargyline samples versus D0) is roughly 3365 genes. In the test with LCPs (setting [1]), this molecule showed a genes downregulated of 330 genes and a genes upregulated of 144 genes. In addition, the “genes with altered expression” value with LCPs (D10 with pargyline compared to untreated, padj<0.05, fold change >1.25) was “approximately 474 genes”. Moreover, the “gene set enrichment score, development of auditory receptors (GO:0060117)” value in the test on LCPs (GSEA after pargyline treatment, p<0.1) is on record as 0.62. Moreover, in the test on LCPs (setting [2]), the “top 15 differentially expressed Wnt target genes: number downregulated” value is 13 genes and the “top 15 differentially expressed Wnt target genes: number upregulated” value was found to be 2 genes. In addition, the “immunostaining for Atoh1 and Myo7a” value with LCP organoids is on record as “almost uniformly positive”.

These data come from US20240245702A1, “Inhibition of Lysine Demethylase 1 (Lsd1) Induces Differentiation of Hair Cells” (Massachusetts Eye and Ear Infirmary, priority 2018, published 2024).
